Usually IC50 stands for the midpoint of a concentration-inhibition curve.

SMILES strings stand for the structures.

In the assay the target is T1, PARP1 (Homo sapiens, UniProt P09874).
T1 construct: purchased BPS Bioscience
T1 sequence (P09874 whole entry): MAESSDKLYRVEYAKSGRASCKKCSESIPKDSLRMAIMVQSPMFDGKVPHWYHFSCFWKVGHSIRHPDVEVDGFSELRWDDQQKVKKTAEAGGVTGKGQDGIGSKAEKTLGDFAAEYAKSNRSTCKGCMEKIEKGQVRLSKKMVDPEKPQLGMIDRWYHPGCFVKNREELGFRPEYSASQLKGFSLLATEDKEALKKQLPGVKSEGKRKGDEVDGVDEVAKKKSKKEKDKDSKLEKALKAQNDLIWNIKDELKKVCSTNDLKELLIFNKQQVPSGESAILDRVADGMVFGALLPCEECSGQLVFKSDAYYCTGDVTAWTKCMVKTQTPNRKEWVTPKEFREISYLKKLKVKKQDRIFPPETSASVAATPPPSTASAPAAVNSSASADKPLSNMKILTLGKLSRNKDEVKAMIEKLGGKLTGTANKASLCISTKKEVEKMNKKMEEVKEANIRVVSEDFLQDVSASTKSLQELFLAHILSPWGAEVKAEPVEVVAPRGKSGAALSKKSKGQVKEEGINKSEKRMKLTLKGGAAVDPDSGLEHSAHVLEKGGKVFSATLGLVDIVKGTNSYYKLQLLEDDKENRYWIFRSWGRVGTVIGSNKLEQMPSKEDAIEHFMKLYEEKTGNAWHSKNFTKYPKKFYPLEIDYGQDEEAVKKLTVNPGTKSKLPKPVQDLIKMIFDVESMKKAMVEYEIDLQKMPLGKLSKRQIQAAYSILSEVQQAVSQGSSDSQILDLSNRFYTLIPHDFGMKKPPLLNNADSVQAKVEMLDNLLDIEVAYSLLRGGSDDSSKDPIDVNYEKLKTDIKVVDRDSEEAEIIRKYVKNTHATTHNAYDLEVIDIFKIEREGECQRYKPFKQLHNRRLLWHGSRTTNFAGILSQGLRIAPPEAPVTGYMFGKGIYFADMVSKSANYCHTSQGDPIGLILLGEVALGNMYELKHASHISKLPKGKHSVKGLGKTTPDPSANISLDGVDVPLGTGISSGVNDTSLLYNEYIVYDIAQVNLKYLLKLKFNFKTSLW
As to the kind of experiment: PARP1 Biochemical Assay (BPS Bioscience kit, chemiluminescence). The settings on record: histone-coated plate, biotinilated NAD+, 25° C. for 60 min, luminescence, read-out: PARP 1 inhibition IC50. A digest of the protocol: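 Human PARP1 (25–75 ng/well) with activated DNA was incubated with compound on histone-coated wells. Biotinylated NAD+ was added and the reaction ran 60 min at 25 °C. Ribosylation was detected by streptavidin-HRP chemiluminescence, % inhibition was normalised to enzyme-free and uninhibited controls, and IC50 was fitted from % inhibition versus concentration.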
Take `Cc1ccnc(N2CCN([C@H]3C=C(c4nc5c(c(=O)[nH]4)CC4(CC5)CC4)CC3)CC2)c1` [Compound 125, (R)-2′-(3-(4-(4-methylpyridin-2-yl)piperazin-1-yl)cyclopent-1-en-1-yl)-7′,8′-dihydro-3′H-spiro[cyclopropane-1,6′-quinazolin]-4′(5′H)-one]: the 50% inhibitory concentration (IC50) was 1 to 500 nM. Take `O=c1[nH]c(C2=C[C@H](N3CCN(c4nccs4)CC3)CC2)nc2c1CC1(CC2)CC1` [Compound 101, (R)-2′-(3-(4-(thiazol-2-yl)piperazin-1-yl)cyclopent-1-en-1-yl)-7′,8′-dihydro-3′H-spiro[cyclopropane-1,6′-quinazolin]-4′(5′H)-one]: the half-inhibitory concentration (IC50) was in the range of 1 to 500 nM. In the case of `Cc1c(Cl)cccc1N1CCN([C@H]2C=C(c3nc4c(c(=O)[nH]3)CC3(CC4)CC3)CC2)CC1` [Compound 143, (R)-2′-(3-(4-(3-chloro-2-methylphenyl)piperazin-1-yl)cyclopent-1-en-1-yl)-7′,8′-dihydro-3′H-spiro[cyclopropane-1,6′-quinazolin]-4′(5′H)-one] it was 1 to 500 nM; in that of `O=C1CN([C@H]2C=C(c3nc4c(c(=O)[nH]3)CC3(CC4)CC3)CC2)CCN1c1ccc(F)cc1` [Compound 45, (R)2′-(3-(4-(4-fluorophenyl)-3-oxopiperazin-1-yl)cyclopent-1-en-1-yl)-7′,8′-dihydro-3′H-spiro[cyclopropane-1,6′-quinazolin]-4′(5′H)-one], 5000 to 500000 nM; in that of `Cc1ccc(N2CCN([C@H]3C=C(c4nc5c(c(=O)[nH]4)CC4(CC5)CC4)CC3)CC2)cc1F` [Compound 84, (R)-2′-(3-(4-(3-fluoro-4-methylphenyl)piperazin-1-yl)cyclopent-1-en-1-yl)-7′,8′-dihydro-3′H-spiro[cyclopropane-1,6′-quinazolin]-4′(5′H)-one], 1 to 500 nM. Regarding `O=c1[nH]c(CCCN2CCN(c3ccc(F)cc3)CC2)nc2c1CCCC21CC1` [Compound 1, 2′-(3-(4-(4-fluorophenyl)piperazin-1-yl)propyl)-6′,7′-dihydro-3′H-spiro[cyclopropane-1,8′-quinazolin]-4′(5′H)-one], the IC50 lay in the range of 1 to 500 nM. For the compound `O=c1[nH]c(C2=C[C@H](N3CCC(c4ccc(F)cc4)CC3)CC2)nc2c1CC1(CC2)CC1` [Compound 75, (R)-2′-(3-(4-(4-fluorophenyl)piperidin-1-yl)cyclopent-1-en-1-yl)-7′,8′-dihydro-3′H-spiro[cyclopropane-1,6′-quinazolin]-4′(5′H)-one], the concentration for half-maximal inhibition (IC50) lay in the range of 1 to 500 nM. In the case of `O=c1[nH]c([C@@H]2CC[C@@H](N3CCN(c4ccc(F)cc4)CC3)C2)nc2c1CC1(CC2)CC1` [Compound 152, 2′-((1R,3R)-3-(4-(4-fluorophenyl)piperazin-1-yl)cyclopentyl)-7′,8′-dihydro-3′H-spiro[cyclopropane-1,6′-quinazolin]-4′(5′H)-one] it was 501 to 5000 nM. In the case of `O=c1[nH]c(C2=C[C@H](N3CCN(c4ccc(Cl)c(F)c4)CC3)CC2)nc2c1CC1(CC2)CC1` [Compound 86, (R)-2′-(3-(4-(4-chloro-3-fluorophenyl)piperazin-1-yl)cyclopent-1-en-1-yl)-7′,8′-dihydro-3′H-spiro[cyclopropane-1,6′-quinazolin]-4′(5′H)-one] it was 1 to 500 nM.

On to `O=c1[nH]c(C2=CC(N3CCN(c4ccncc4)CC3)CC2)nc2c1CC1(CC2)CC1` (stereo not shown) [Compound 39, 2′-(3-(4-(pyridin-4-yl)piperazin-1-yl)cyclopent-1-en-1-yl)-7′,8′-dihydro-3′H-spiro[cyclopropane-1,6′-quinazolin]-4′(5′H)-one], for which the IC50 is 1 to 500 nM.

For `O=c1[nH]c([C@@H]2CC[C@H](N3CCN(c4cccc(F)c4)CC3)C2)nc2c1CC1(CC2)CC1` [Compound 153, 2′-((1R,3S)-3-(4-(3-fluorophenyl)piperazin-1-yl)cyclopentyl)-7′,8′-dihydro-3′H-spiro[cyclopropane-1,6′-quinazolin]-4′(5′H)-one], the IC50 was 5000 to 500000 nM. Then `O=c1[nH]c(CCCN2CCC(c3ccccc3)CC2)nc2c1CC1(CC2)CC1` [Compound 19, 2′-(3-(4-phenylpiperidin-1-yl)propyl)-7′,8′-dihydro-3′H-spiro[cyclopropane-1,6′-quinazolin]-4′(5′H)-one], with 1 to 500 nM; and `Cc1cccc(N2CCN([C@H]3C=C(c4nc5c(c(=O)[nH]4)CC4(CC5)CC4)CC3)CC2)c1` [Compound 85, (R)-2′-(3-(4-(m-tolyl)piperazin-1-yl)cyclopent-1-en-1-yl)-7′,8′-dihydro-3′H-spiro[cyclopropane-1,6′-quinazolin]-4′(5′H)-one], with 1 to 500 nM. For the compound `O=c1[nH]c(C2=CC(N3CCN(c4ccc(Br)cc4)CC3)CC2)nc2c1CC1(CC2)CC1` (stereo not shown) [Compound 50, 2′-(3-(4-(4-bromophenyl)piperazin-1-yl)cyclopent-1-en-1-yl)-7′,8′-dihydro-3′H-spiro[cyclopropane-1,6′-quinazolin]-4′(5′H)-one], the IC50 fell in the range of 1 to 500 nM. In the case of `CC1(C)CC(c2nc3c(c(=O)[nH]2)CC2(CC3)CC2)=C[C@H]1N1CCN(c2ccc(F)cc2)CC1` [Compound 70, (R)-2′-(3-(4-(4-fluorophenyl)piperazin-1-yl)-4,4-dimethylcyclopent-1-en-1-yl)-7′,8′-dihydro-3′H-spiro[cyclopropane-1,6′-quinazolin]-4′(5′H)-one] it was 5000 to 500000 nM; in that of `O=c1[nH]c(C2=C[C@H](N3CCN(c4ncccn4)CC3)CC2)nc2c1CC1(CC2)CC1` [Compound 128, (R)-2′-(3-(4-(pyrimidin-2-yl)piperazin-1-yl)cyclopent-1-en-1-yl)-7′,8′-dihydro-3′H-spiro[cyclopropane-1,6′-quinazolin]-4′(5′H)-one], 5000 to 500000 nM. In the case of `O=c1[nH]c(C2=C[C@H](N3CCN(c4ccc(Cl)c(Cl)c4)CC3)CC2)nc2c1CC1(CC2)CC1` [Compound 59, (R)-2′-(3-(4-(3,4-dichlorophenyl)piperazin-1-yl)cyclopent-1-en-1-yl)-7′,8′-dihydro-3′H-spiro[cyclopropane-1,6′-quinazolin]-4′(5′H)-one] it was 5000 to 500000 nM. Then `O=c1[nH]c(C2=C[C@@H](N3CC=C(c4ccc(F)cc4)CC3)CC2)nc2c1CC1(CC2)CC1` [Compound 51, (S)-2′-(3-(4-(4-fluorophenyl)-5,6-dihydropyridin-1(2H)-yl)cyclopent-1-en-1-yl)-7′,8′-dihydro-3′H-spiro[cyclopropane-1,6′-quinazolin]-4′(5′H)-one], with 1 to 500 nM; and `O=c1[nH]c(CCCN2CCN(c3cccc(Cl)c3)CC2)nc2c1CC1(CC2)CC1` [Compound 18, 2′-(3-(4-(3-chlorophenyl)piperazin-1-yl)propyl)-7′,8′-dihydro-3′H-spiro[cyclopropane-1,6′-quinazolin]-4′(5′H)-one], with 5000 to 500000 nM; and `O=c1[nH]c(C2=C[C@@H](N3CCN(c4ccc(Cl)cc4)CC3)CC2)nc2c1CCCC21CC1` [Compound 40, (S)-2′-(3-(4-(4-chlorophenyl)piperazin-1-yl)cyclopent-1-en-1-yl)-6′,7′-dihydro-3′H-spiro[cyclopropane-1,8′-quinazolin]-4′(5′H)-one], with 1 to 500 nM. Regarding `O=c1[nH]c(C2=C[C@H](N3CCN(c4c(F)cccc4Cl)CC3)CC2)nc2c1CC1(CC2)CC1` [Compound 139, (R)-2′-(3-(4-(2-chloro-6-fluorophenyl)piperazin-1-yl)cyclopent-1-en-1-yl)-7′,8′-dihydro-3′H-spiro[cyclopropane-1,6′-quinazolin]-4′(5′H)-one], the IC50 was in the range of 5000 to 500000 nM. Then `O=c1[nH]c(CCCN2CCN(c3ccc(Cl)cc3Cl)CC2)nc2c1CC1(CC2)CC1` [Compound 34, 2′-(3-(4-(2,4-dichlorophenyl)piperazin-1-yl)propyl)-7′,8′-dihydro-3′H-spiro[cyclopropane-1,6′-quinazolin]-4′(5′H)-one], with 1 to 500 nM; and `O=c1[nH]c(CCCN2CC=C(c3ccc(F)cc3)CC2)nc2c1CCC1(CC1)C2` [Compound 16, 2′-(3-(4-(4-fluorophenyl)-5,6-dihydropyridin-1(2H)-yl)propyl)-5′,6′-dihydro-3′H-spiro[cyclopropane-1,7′-quinazolin]-4′(8′H)-one], with 5000 to 500000 nM. Then `O=c1[nH]c(C2=C[C@H](N3CCC(c4ccc(Cl)cc4)CC3)CC2)nc2c1CC1(CC2)CC1` [Compound 56, (R)-2′-(3-(4-(4-chlorophenyl)piperidin-1-yl)cyclopent-1-en-1-yl)-7′,8′-dihydro-3′H-spiro[cyclopropane-1,6′-quinazolin]-4′(5′H)-one], with 1 to 500 nM.

With `Cc1ccc(N2CCN([C@H]3C=C(c4nc5c(c(=O)[nH]4)CC4(CC5)CC4)CC3)CC2)cc1C` [Compound 136, (R)-2′-(3-(4-(3,4-dimethylphenyl)piperazin-1-yl)cyclopent-1-en-1-yl)-7′,8′-dihydro-3′H-spiro[cyclopropane-1,6′-quinazolin]-4′(5′H)-one], the half-maximal inhibitory concentration (IC50) is 501 to 5000 nM. As to `O=c1[nH]c(C2=C[C@H](N3CCN(c4ccc(F)cn4)CC3)CC2)nc2c1CC1(CC2)CC1` [Compound 58, (R)-2′-(3-(4-(5-fluoropyridin-2-yl)piperazin-1-yl)cyclopent-1-en-1-yl)-7′,8′-dihydro-3′H-spiro[cyclopropane-1,6′-quinazolin]-4′(5′H)-one], the IC50 lay in the range of 1 to 500 nM. Then `CNC(=O)c1cccc(N2CCN([C@H]3C=C(c4nc5c(c(=O)[nH]4)CC4(CC5)CC4)CC3)CC2)c1` [Compound 87, (R)—N-methyl-3-(4-(3-(4′-oxo-4′,5′,7′,8′-tetrahydro-3′H-spiro[cyclopropane-1,6′-quinazolin]-2′-yl)cyclopent-2-en-1-yl)piperazin-1-yl)benzamide], with 1 to 500 nM. As for `COc1cc(N2CCN([C@H]3C=C(c4nc5c(c(=O)[nH]4)CC4(CC5)CC4)CC3)CC2)ccc1F` [Compound 114, (R)-2′-(3-(4-(4-fluoro-3-methoxyphenyl)piperazin-1-yl)cyclopent-1-en-1-yl)-7′,8′-dihydro-3′H-spiro[cyclopropane-1,6′-quinazolin]-4′(5′H)-one], the IC50 was 1 to 500 nM.

For the origin of these results see US9359367B2, “Tetrahydroquinazolinone derivatives as PARP inhibitors” (Lupin Limited, priority 2012, dated 2016).
